BindingDB's records for doi:10.1080/14756360601114536 (University of Tehran, 2007)

Tests used:
Polyphenol oxidase 2 [1] = molecular target: T1, Polyphenol oxidase 2 (Agaricus bisporus, UniProt O42713); assay: Catecholase Activity Assay; conditions: pH 6.8; 20 °C
T1 sequence (O42713 whole entry): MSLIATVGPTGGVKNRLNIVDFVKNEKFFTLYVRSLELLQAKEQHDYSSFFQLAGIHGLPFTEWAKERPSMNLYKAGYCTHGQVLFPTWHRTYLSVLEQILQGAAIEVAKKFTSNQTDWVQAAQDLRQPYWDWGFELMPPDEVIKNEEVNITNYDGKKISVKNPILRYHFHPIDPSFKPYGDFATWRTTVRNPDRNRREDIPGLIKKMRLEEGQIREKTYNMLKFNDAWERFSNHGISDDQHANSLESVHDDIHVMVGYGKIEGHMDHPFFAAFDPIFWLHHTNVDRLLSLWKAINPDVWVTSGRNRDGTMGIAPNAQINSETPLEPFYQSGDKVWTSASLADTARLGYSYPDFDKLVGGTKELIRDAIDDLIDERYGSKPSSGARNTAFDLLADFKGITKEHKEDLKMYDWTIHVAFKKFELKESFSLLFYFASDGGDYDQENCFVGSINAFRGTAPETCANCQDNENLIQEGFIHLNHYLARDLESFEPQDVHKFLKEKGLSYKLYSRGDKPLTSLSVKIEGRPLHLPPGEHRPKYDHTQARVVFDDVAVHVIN
Description: (§1) Kinetic assay of catecholase and cresolase activities was carried out through depletion of MeBACat and MePAPh for 1 or 2 min with enzyme concentrations of 11.11 and 112.68 ug/mL at wavelenghts of 473 nm and 352 nm using a Cary spectrophotometer, 100 Biomodel with jacketed cell holders.

Polyphenol oxidase 2 [2] = molecular target: T1, Polyphenol oxidase 2; assay: Cresolase Activity Assay; conditions: pH 6.8; 20 °C
Description: as §1

Row | SMILES | Ki (Polyphenol oxidase 2 [1]) | Ki (Polyphenol oxidase 2 [2])
1 | CC(C)COC(=S)[S][Na] [Iso-butyl xanthate, II] | 21.8 µM | 7.2 µM
2 | CC(C)CCOC(=S)[S][Na] [Iso-pentyl xanthate, III] | 42.2 µM | 6.1 µM
3 | CC(C)OC(=S)[S][Na] [Iso-propyl xanthate, I] | 12.9 µM | 9.8 µM
